Experimental data reported in patent EP2951180B1, “2,6,7,8 SUBSTITUTED PURINES AS HDM2 INHIBITORS” (Merck Sharp & Dohme Corp., priority 2013, dated 2014).
pIC50: −log10 of the molar value.

Target: T1, HDM2 (Homo sapiens, UniProt Q00987)
T1 construct: Thioredoxin (N); made in house; host or cells: E. coli strain BL21(DE3)Rosetta
Test: HDM2 FRET assay (inhibition of binding of FITC labeled p53-pocket peptide to HDM2)
Settings: FRET IC50
Procedure, shortened: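 Signal is read as the 520/495 nm emission ratio and converted to percent inhibition; nonlinear sigmoidal regression yields IC50. The assay mixes HDM2 (0.5 nM), FITC-p53 peptide (3 nM) and Tb anti-His antibody (0.25 nM) at 0.1% DMSO.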

T1 sequence (Q00987 17-125): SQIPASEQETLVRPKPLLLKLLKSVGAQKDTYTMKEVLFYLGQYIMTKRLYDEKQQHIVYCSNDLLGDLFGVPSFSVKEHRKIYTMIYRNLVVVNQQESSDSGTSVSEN

Row | Compound | pIC50
1 | C[C@@H](Nc1nc(C(=O)O)nc2nc(N3C4CCC3COC4)n(Cc3ccc(C(F)(F)F)cc3)c12)C1CCC1 [Example 9.76, 6-{[(1R)-1-cyclobutylethyl]amino}-8-(3-oxa-8-azabicyclo[3.2.1]oct-8-yl)-7-[4-(trifluoromethyl)benzyl]-7H-purine-2-carboxylic acid] | 7.80

Same assay, conditions: Table 9; read-out: FRET IC50

Row | Compound | pIC50
2 | CC(C)CN(C)c1nc2nc(-c3noc(=O)[nH]3)nc(N[C@H](C)C3CCC3)c2n1Cc1ccc(C(F)(F)F)cc1 [Example 9.81, 3-(6-{[(1R)-1-cyclobutylethyl]amino}-8-[methyl(2-methylpropyl)amino]-7-[4-(trifluoromethyl)benzyl]-7H-purin-2-yl)-1,2,4-oxadiazol-5(4H)-one] | 7.93
3 | C[C@@H](Nc1nc(-c2noc(=O)[nH]2)nc2nc(N(C)C3CCCC3)n(Cc3ccc(C(F)(F)F)cc3)c12)C1CCC1 [Example 9.82, 3-(6-{[(1R)-1-cyclobutylethyl]amino}-8-[cyclopentyl(methyl)amino]-7-[4-(trifluoromethyl)benzyl]-7H-purin-2-yl)-1,2,4-oxadiazol-5(4H)-one] | 7.86
4 | C[C@@H](Nc1nc(-c2noc(=O)[nH]2)nc2nc(N3CCCC3(C)C)n(Cc3ccc(C(F)(F)F)cc3)c12)C1CCC1 [Example 9.83, 3-(6-{[(1R)-1-cyclobutylethyl]amino}-8-(2,2-dimethylpyrrolidin-1-yl)-7-[4-(trifluoromethyl)benzyl]-7H-purin-2-yl)-1,2,4-oxadiazol-5(4H)-one] | 7.59
5 | C[C@@H](Nc1nc(-c2noc(=O)[nH]2)nc2nc(N(C)CC(C)(C)C)n(Cc3ccc(C(F)(F)F)cc3)c12)C1CCC1 [Example 9.84, 3-(6-{[(1R)-1-cyclobutylethyl]amino}-8-[(2,2-dimethylpropyl)(methyl)amino]-7-[4-(trifluoromethyl)benzyl]-7H-purin-2-yl)-1,2,4-oxadiazol-5(4H)-one] | 7.88
6 | C[C@@H](Nc1nc(-c2noc(=O)[nH]2)nc2nc(N3CCCCC34CC4)n(Cc3ccc(C(F)(F)F)cc3)c12)C1CCC1 [Example 9.85, 3-{8-(4-azaspiro[2.5]oct-4-yl)-6-{[(1R)-1-cyclobutylethyl]amino}-7-[4-(trifluoromethyl)benzyl]-7H-purin-2-yl}-1,2,4-oxadiazol-5(4H)-one] | 8.01
7 | CC(C)C1CCCN1c1nc2nc(-c3noc(=O)[nH]3)nc(N[C@H](C)C3CCC3)c2n1Cc1ccc(C(F)(F)F)cc1 (stereo partly drawn) [Example 9.86, 3-(6-{[(1R)-1-cyclobutylethyl]amino}-8-[2-(1-methylethyl)pyrrolidin-1-yl]-7-[4-(trifluoromethyl)benzyl]-7H-purin-2-yl)-1,2,4-oxadiazol-5(4H)-one] | 7.99
8 | C[C@@H](Nc1nc(-c2noc(=O)[nH]2)nc2nc(N(C)C3CCCCC3)n(Cc3ccc(C(F)(F)F)cc3)c12)C1CCC1 [Example 9.87, 3-(6-{[(1R)-1-cyclobutylethyl]amino}-8-[cyclohexyl(methyl)amino]-7-[4-(trifluoromethyl)benzyl]-7H-purin-2-yl)-1,2,4-oxadiazol-5(4H)-one] | 7.63
9 | C[C@@H](Nc1nc(-c2noc(=O)[nH]2)nc2nc(N3CCOCC3(C)C)n(Cc3ccc(C(F)(F)F)cc3)c12)C1CCC1 [Example 9.88, 3-(6-{[(1R)-1-cyclobutylethyl]amino}-8-(3,3-dimethylmorpholin-4-yl)-7-[4-(trifluoromethyl)benzyl]-7H-purin-2-yl)-1,2,4-oxadiazol-5(4H)-one] | 7.91
10 | COCC1(N(C)c2nc3nc(-c4noc(=O)[nH]4)nc(N[C@H](C)C4CCC4)c3n2Cc2ccc(C(F)(F)F)cc2)CC1 [Example 9.89, 3-(6-{[(1R)-1-cyclobutylethyl]amino}-8-{[1-(methoxymethyl)cyclopropyl] (methyl)amino}-7-[4-(trifluoromethyl)benzyl]-7H-purin-2-yl)-1,2,4-oxadiazol-5(4H)-one] | 7.64
11 | C[C@@H](Nc1nc(-c2noc(=O)[nH]2)nc2nc(N3CCCCC3CF)n(Cc3ccc(C(F)(F)F)cc3)c12)C1CCC1 (stereo partly drawn) [Example 9.90, 3-(6-{[(1R)-1-cyclobutylethyl]amino}-8-[2-(fluoromethyl)piperidin-1-yl]-7-[4-(trifluoromethyl)benzyl]-7H-purin-2-yl)-1,2,4-oxadiazol-5(4H)-one] | 7.92
12 | CC(C)CC1CCCN1c1nc2nc(-c3noc(=O)[nH]3)nc(N[C@H](C)C3CCC3)c2n1Cc1ccc(C(F)(F)F)cc1 (stereo partly drawn) [Example 9.91, 3-(6-{[(1R)-1-cyclobutylethyl]amino}-8-[2-(2-methylpropyl)pyrrolidin-1-yl]-7-[4-(trifluoromethyl)benzyl]-7H-purin-2-yl)-1,2,4-oxadiazol-5(4H)-one] | 7.71
13 | CC(C)CC1CCN(c2nc3nc(-c4noc(=O)[nH]4)nc(N[C@H](C)C4CCC4)c3n2Cc2ccc(C(F)(F)F)cc2)C1 (stereo partly drawn) [Example 9.92, 3-(6-{[(1R)-1-cyclobutylethyl]amino}-8-[3-(2-methylpropyl)pyrrolidin-1-yl]-7-[4-(trifluoromethyl)benzyl]-7H-purin-2-yl)-1,2,4-oxadiazol-5(4H)-one] | 6.32
14 | C[C@@H](Nc1nc(-c2noc(=O)[nH]2)nc2nc(N(C)CC3CCOCC3)n(Cc3ccc(C(F)(F)F)cc3)c12)C1CCC1 [Example 9.93, 3-(6-{[(1R)-1-cyclobutylethyl]amino}-8-[methyl(tetrahydro-2H-pyran-4-ylmethyl)amino]-7-[4-(trifluoromethyl)benzyl]-7H-purin-2-yl)-1,2,4-oxadiazol-5(4H)-one] | 7.33
15 | C[C@@H](Nc1nc(-c2noc(=O)[nH]2)nc2nc(N(C)CCc3ccccc3)n(Cc3ccc(C(F)(F)F)cc3)c12)C1CCC1 [Example 9.94, 3-(6-{[(1R)-1-cyclobutylethyl]amino}-8-[methyl(2-phenylethyl)amino]-7-[4-(trifluoromethyl)benzyl]-7H-purin-2-yl)-1,2,4-oxadiazol-5(4H)-one] | 7.01
16 | CCN(CC1CCCCC1)c1nc2nc(-c3noc(=O)[nH]3)nc(N[C@H](C)C3CCC3)c2n1Cc1ccc(C(F)(F)F)cc1 [Example 9.95, 3-(6-{[(1R)-1-cyclobutylethyl]amino}-8-[(cyclohexylmethyl)(ethyl)amino]-7-[4-(trifluoromethyl)benzyl]-7H-purin-2-yl)-1,2,4-oxadiazol-5(4H)-one] | 7.57
17 | CCCN(c1nc2nc(-c3noc(=O)[nH]3)nc(N[C@H](C)C3CCC3)c2n1Cc1ccc(C(F)(F)F)cc1)C1CCCCC1 [Example 9.96, 3-(6-{[(1R)-1-cyclobutylethyl]amino}-8-[cyclohexyl(propyl)amino]-7-[4-(trifluoromethyl)benzyl]-7H-purin-2-yl)-1,2,4-oxadiazol-5(4H)-one] | 7.79
18 | CCN(CCN1CCCC1)c1nc2nc(-c3noc(=O)[nH]3)nc(N[C@H](C)C3CCC3)c2n1Cc1ccc(C(F)(F)F)cc1 [Example 9.97, 3-(6-{[(1R)-1-cyclobutylethyl]amino}-8-[ethyl(2-pyrrolidin-1-ylethyl)amino]-7-[4-(trifluoromethyl)benzyl]-7H-purin-2-yl)-1,2,4-oxadiazol-5(4H)-one] | 7.62
19 | C[C@@H](Nc1nc(-c2noc(=O)[nH]2)nc2nc(N(C)CC3(C)CCN(C)C3)n(Cc3ccc(C(F)(F)F)cc3)c12)C1CCC1 (stereo partly drawn) [Example 9.98, 3-(6-{[(1R)-1-cyclobutylethyl]amino}-8-{[(1,3-dimethylpyrrolidin-3-yl)methyl] (methyl)amino}-7-[4-(trifluoromethyl)benzyl]-7H-purin-2-yl)-1,2,4-oxadiazol-5(4H)-one] | 7.15
20 | C[C@@H](Nc1nc(-c2noc(=O)[nH]2)nc2nc(N(C)CC3CCCN(C)C3)n(Cc3ccc(C(F)(F)F)cc3)c12)C1CCC1 (some centres unmarked) [Example 9.99] | 7.35
21 | C[C@@H](Nc1nc(-c2noc(=O)[nH]2)nc2nc(N(C)CCCN3CCCC3)n(Cc3ccc(C(F)(F)F)cc3)c12)C1CCC1 [Example 9.100, 3-(6-{[(1R)-1-cyclobutylethyl]amino}-8-[methyl(3-pyrrolidin-1-ylpropyl)amino]-7-[4-(trifluoromethyl)benzyl]-7H-purin-2-yl)-1,2,4-oxadiazol-5(4H)-one] | 6.83
22 | CC(C)CC1COCCN1c1nc2nc(-c3noc(=O)[nH]3)nc(N[C@H](C)C3CCC3)c2n1Cc1ccc(C(F)(F)F)cc1 (stereo partly drawn) [Example 9.101, 3-(6-{[(1R)-1-cyclobutylethyl]amino}-8-[3-(2-methylpropyl)morpholin-4-yl]-7-[4-(trifluoromethyl)benzyl]-7H-purin-2-yl)-1,2,4-oxadiazol-5(4H)-one] | 8.01
23 | C[C@@H](Nc1nc(-c2noc(=O)[nH]2)nc2nc(N(C)C3CCc4ccccc43)n(Cc3ccc(C(F)(F)F)cc3)c12)C1CCC1 (stereo partly drawn) [Example 9.102, 3-(6-{[(1R)-1-cyclobutylethyl]amino}-8-[2,3-dihydro-1H-inden-1-yl(methyl)amino]-7-[4-(trifluoromethyl)benzyl]-7H-purin-2-yl)-1,2,4-oxadiazol-5(4H)-one] | 7.22
24 | C[C@@H](Nc1nc(-c2noc(=O)[nH]2)nc2nc(N3CCCC3C3CCCCC3)n(Cc3ccc(C(F)(F)F)cc3)c12)C1CCC1 (stereo partly drawn) [Example 9.103, 3-(6-{[(1R)-1-cyclobutylethyl]amino}-8-(2-cyclohexylpyrrolidin-1-yl)-7-[4-(trifluoromethyl)benzyl]-7H-purin-2-yl)-1,2,4-oxadiazol-5(4H)-one] | 7.50
25 | CC(CN1CCCC1)CN(C)c1nc2nc(-c3noc(=O)[nH]3)nc(N[C@H](C)C3CCC3)c2n1Cc1ccc(C(F)(F)F)cc1 (stereo partly drawn) [Example 9.104, 3-(6-{[(1R)-1-cyclobutylethyl]amino}-8-[methyl(2-methyl-3-pyrrolidin-1-ylpropyl)amino]-7-[4-(trifluoromethyl)benzyl]-7H-purin-2-yl)-1,2,4-oxadiazol-5(4H)-one] | 7.20
26 | C[C@@H](Nc1nc(-c2noc(=O)[nH]2)nc2nc(N3CCCC3Cc3cccnc3)n(Cc3ccc(C(F)(F)F)cc3)c12)C1CCC1 (stereo partly drawn) [Example 9.105, 3-(6-{[(1R)-1-cyclobutylethyl]amino}-8-[2-(pyridin-3-ylmethyl)pyrrolidin-1-yl]-7-[4-(trifluoromethyl)benzyl]-7H-purin-2-yl)-1,2,4-oxadiazol-5(4H)-one] | 7.85
